# ChEMBL document CHEMBL4831477, “Structure-Enabled Discovery of Novel Macrocyclic Inhibitors Targeting Glutaminase 1 Allosteric Binding Site” (J Med Chem, 2021)
# Activity calls are given as the source filed them. No cut-off for these calls is given here.
# How the values were obtained:
# [1] = Free plasma protein in mouse; type: ADME, cell-free
# HCT-116 [2] = experiment: Antitumor activity against human HCT-116 cells xenografted in BALB/c nude mouse assessed as large areas of necrosis at 200 mg/kg, po administered twice daily measured after 28 days by H and E staining based optical microscopic analysis; type: functional, organism-based; settings: time 28.0 day
# [3] = biological target: T1, Glutaminase kidney isoform, mitochondrial (Mus musculus) (UniProt D3Z7P3); experiment: In vivo inhibition of GLS1 in BALB/c mouse xenografted with human HCT-116 cells assessed as reduction in glutamate level at 200 mg/kg, po; type: functional, organism-based
# T1 sequence (whole entry): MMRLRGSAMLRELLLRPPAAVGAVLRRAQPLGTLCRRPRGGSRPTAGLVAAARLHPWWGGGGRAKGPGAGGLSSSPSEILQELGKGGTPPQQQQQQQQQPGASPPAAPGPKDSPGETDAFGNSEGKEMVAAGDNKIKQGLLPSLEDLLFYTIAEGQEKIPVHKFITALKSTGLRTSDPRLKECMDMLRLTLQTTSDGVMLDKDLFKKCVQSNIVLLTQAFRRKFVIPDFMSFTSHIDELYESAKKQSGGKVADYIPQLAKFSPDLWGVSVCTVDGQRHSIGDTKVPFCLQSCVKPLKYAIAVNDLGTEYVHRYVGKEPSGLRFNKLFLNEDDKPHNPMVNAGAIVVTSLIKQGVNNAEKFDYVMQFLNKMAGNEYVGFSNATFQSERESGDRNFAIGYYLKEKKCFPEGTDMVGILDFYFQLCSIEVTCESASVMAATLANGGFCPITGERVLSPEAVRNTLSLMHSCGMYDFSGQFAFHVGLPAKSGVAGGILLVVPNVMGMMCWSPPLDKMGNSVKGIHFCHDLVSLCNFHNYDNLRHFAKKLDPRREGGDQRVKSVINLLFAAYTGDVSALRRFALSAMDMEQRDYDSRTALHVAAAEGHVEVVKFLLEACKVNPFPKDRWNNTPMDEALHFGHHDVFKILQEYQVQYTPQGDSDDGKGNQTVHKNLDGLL
# MDA-MB-436 = experiment: Antiproliferative activity against human MDA-MB-436 cells assessed as reduction in cell viability incubated for 72 hrs by MTT assay; type: functional, cell-based; settings: MDA-MB-436, 72 h
# [4] = fCmax in BALB/c nude mouse plasma xenografted with human HCT-116 cells at 200 mg/kg, po administered twice daily for 28 days; type: ADME, organism-based; settings: in vivo, 672 h, time 28 day
# [5] = Oral bioavailability in Sprague-Dawley rat at 200 mg/kg measured upto 72 hrs by LC-MS/MS analysis; type: ADME, organism-based; settings: in vivo
# [6] = Metabolic stability in human liver microsomes assessed as clearance at 10 uM preincubated for 5 mins followed by NADPH addition by LC-MS/MS analysis; type: ADME, Microsome; settings: read-out: CLH
# [7] = Metabolic stability in human liver microsomes assessed as half life at 10 uM preincubated for 5 mins followed by NADPH addition by LC-MS/MS analysis; type: ADME, Microsome
# [8] = Acute toxicity in BALB/c nude mouse assessed as liver damage at 200 mg/kg, po administered twice daily for 4 weeks by H and E staining based optical microscopic analysis; type: organism-based; settings: in vivo, 672 h
# [9] = Metabolic stability in mouse liver microsomes assessed as clearance at 10 uM preincubated for 5 mins followed by NADPH addition by LC-MS/MS analysis; type: ADME, Microsome; settings: read-out: CLH
# [10] = Apparent volume of distribution in Sprague-Dawley rat at 200 mg/kg, po measured upto 72 hrs by LC-MS/MS analysis; type: ADME, organism-based; settings: in vivo
# HCT-116 [11] = experiment: Antitumor activity against human HCT-116 cells xenografted in BALB/c nude mouse assessed as tumor growth inhibition at 200 mg/kg, po administered twice daily measured after 28 days; type: functional; settings: Mus musculus, HCT-116, po, 672 h, time 28 day, read-out: TGI
# [12] = Metabolic stability in mouse plasma assessed as compound remaining after 2 hrs by LC-MS/MS analysis; type: ADME, cell-free; settings: read-out: Stability
# Mus musculus = experiment: Induction of ROS generation in BALB/c mouse xenografted with human HCT-116 cells at 200 mg/kg, po; type: functional, organism-based
# HCT-116 [13] = experiment: Induction of ROS generation in human HCT-116 cells at 500 nM preincubated for 1 hr with NAC followed by compound addition by measured after 3 hrs DCFH-DA dye based flow cytometric analysis; type: functional, cell-based
# [14] = biological target: T1, Glutaminase kidney isoform, mitochondrial (Mus musculus); experiment: In vivo inhibition of GLS1 in BALB/c mouse xenografted with human HCT-116 cells assessed as reduction in glutathione level at 200 mg/kg, po; type: functional, organism-based
# [15] = AUC(0 to infinity) in Sprague-Dawley rat at 5 mg/kg, iv measured upto 72 hrs by LC-MS/MS analysis; type: ADME, organism-based; design: route intravenous, dose 5 mg/kg, time <=72; settings: Sprague-Dawley, in vivo
# [16] = Half life in Sprague-Dawley rat at 200 mg/kg, po measured upto 72 hrs by LC-MS/MS analysis; type: ADME, organism-based; settings: in vivo
# [17] = biological target: T1, Glutaminase kidney isoform, mitochondrial (Mus musculus); experiment: In vivo inhibition of GLS1 in BALB/c mouse xenografted with human HCT-116 cells assessed as reduction in alpha-ketoglutarate level at 200 mg/kg, po; type: functional, organism-based
# [18] = Acute toxicity in BALB/c nude mouse assessed as heart damage at 200 mg/kg, po administered twice daily for 4 weeks by H and E staining based optical microscopic analysis; type: organism-based; settings: in vivo, 672 h
# HCT-116 [19] = experiment: Antiproliferative activity against human HCT116 cells assessed as reduction in cell viability incubated for 72 hrs by MTT assay; type: functional, cell-based; settings: HCT-116, 72 h
# [20] = Toxicity in BALB/c nude mouse xenografted with human HCT-116 cells assessed as body weight loss at 200 mg/kg, po administered twice daily for 28 days and measured every 3 days; type: organism-based; settings: in vivo, 672 h, time 28 day
# [21] = AUC(0 to infinity) in Sprague-Dawley rat at 200 mg/kg, po measured upto 72 hrs by LC-MS/MS analysis; type: ADME, organism-based; design: route oral, dose 200 mg/kg, time <=72; settings: in vivo, 72 h
# [22] = Acute toxicity in BALB/c nude mouse assessed as lung damage at 200 mg/kg, po administered twice daily for 4 weeks by H and E staining based optical microscopic analysis; type: organism-based; settings: in vivo, 672 h
# [23] = Distribution coefficient, logD of the compound at pH 7.4 by LC-MS based shake-flask method; type: physicochemical; settings: octanol/water, read-out: logD
# [24] = Acute toxicity in BALB/c nude mouse assessed as kidney damage at 200 mg/kg, po administered twice daily for 4 weeks by H and E staining based optical microscopic analysis; type: organism-based; settings: in vivo, 672 h
# HCT-116 [25] = experiment: Antitumor activity against human HCT-116 cells xenografted in BALB/c nude mouse assessed as karyorrhexis at 200 mg/kg, po administered twice daily measured after 28 days by H and E staining based optical microscopic method; type: functional, organism-based; settings: time 28.0 day
# [26] = AUC(0 to t) in Sprague-Dawley rat at 5 mg/kg, iv measured upto 72 hrs by LC-MS/MS analysis; type: ADME, organism-based; design: route intravenous, dose 5 mg/kg, time <=72; settings: in vivo
# HCT-116 [27] = experiment: Antitumor activity against human HCT-116 cells xenografted in BALB/c nude mouse assessed as tumor destruction at 200 mg/kg, po administered twice daily measured after 28 days by H and E staining based optical microscopic method; type: functional, organism-based; settings: time 28.0 day
# HCT-116 [28] = experiment: Inhibition of clone formation in human HCT-116 cells at 0.1 to 2 microM incubated for 14 days by crystal violet staining based assay; type: functional, cell-based; settings: dose 0.1-2 µM, time 14.0 day
structure (smiles),measurement,setting,value
O=C1Cc2cccc(c2)OCC/C=C/CCOc2cccc(c2)CC(=O)Nc2nnc(s2)CCCCc2ccc(nn2)N1,fraction unbound,[1],0.129
same,Activity,HCT-116 [2],Active
same,inhibition,[3],Active
same,IC50,MDA-MB-436,0.34 µM
same,fCmax,[4],0.21 µM
same,bioavailability,[5],9%
same,microsomal CLint at 10 µM,[6],3.2 µL/min/mg
same,half-life at 10 µM,[7],2.72 h
same,Activity,[8],Non-Toxic
same,microsomal CLint at 10 µM,[9],7.6 µL/min/mg
same,Vz,[10],58.6 L/kg
same,inhibition in vivo at 200 mg/kg,HCT-116 [11],39%
same,remaining at 2 h,[12],89%
same,Activity,Mus musculus,Active
same,Activity,HCT-116 [13],inactive
same,inhibition,[14],Active
same,AUC(0-inf),[15],1.67 µg·h/mL
same,half-life,[16],5.7 h
same,inhibition,[17],Active
same,Activity,[18],Non-Toxic
same,IC50,HCT-116 [19],0.08 µM
same,Activity,[20],Non-Toxic
same,AUC,[21],6.064 µg·h/mL
same,Activity,[22],Non-Toxic
same,logD,[23],3.13
same,Activity,[24],Non-Toxic
same,Activity,HCT-116 [25],Active
same,AUC(0-t) at 72 h,[26],1.63 µg·h/mL
same,Activity,HCT-116 [27],Active
same,inhibition,HCT-116 [28],Active
